Experimental data from patent US8969389B2, “Substituted 6-methylnicotinamides as mGluR5 positive allosteric modulators” (Vanderbilt University, priority 2010, dated 2015).

Each molecule was assayed against T1, rat mGluR5 (Rattus norvegicus, UniProt P31424) (assay: Potentiation of glutamate response in HEK cells transfected with rat mGluR5 (Ca2+ fluorescence, FDSS)). Conditions: HEK cells transfected with rat mGluR5; read-out: rmGlu5 PAM EC50.
T1 construct: expressed in transfected cells; host or cells: HEK (human embryonic kidney) cells
T1 sequence (P31424 21-1203): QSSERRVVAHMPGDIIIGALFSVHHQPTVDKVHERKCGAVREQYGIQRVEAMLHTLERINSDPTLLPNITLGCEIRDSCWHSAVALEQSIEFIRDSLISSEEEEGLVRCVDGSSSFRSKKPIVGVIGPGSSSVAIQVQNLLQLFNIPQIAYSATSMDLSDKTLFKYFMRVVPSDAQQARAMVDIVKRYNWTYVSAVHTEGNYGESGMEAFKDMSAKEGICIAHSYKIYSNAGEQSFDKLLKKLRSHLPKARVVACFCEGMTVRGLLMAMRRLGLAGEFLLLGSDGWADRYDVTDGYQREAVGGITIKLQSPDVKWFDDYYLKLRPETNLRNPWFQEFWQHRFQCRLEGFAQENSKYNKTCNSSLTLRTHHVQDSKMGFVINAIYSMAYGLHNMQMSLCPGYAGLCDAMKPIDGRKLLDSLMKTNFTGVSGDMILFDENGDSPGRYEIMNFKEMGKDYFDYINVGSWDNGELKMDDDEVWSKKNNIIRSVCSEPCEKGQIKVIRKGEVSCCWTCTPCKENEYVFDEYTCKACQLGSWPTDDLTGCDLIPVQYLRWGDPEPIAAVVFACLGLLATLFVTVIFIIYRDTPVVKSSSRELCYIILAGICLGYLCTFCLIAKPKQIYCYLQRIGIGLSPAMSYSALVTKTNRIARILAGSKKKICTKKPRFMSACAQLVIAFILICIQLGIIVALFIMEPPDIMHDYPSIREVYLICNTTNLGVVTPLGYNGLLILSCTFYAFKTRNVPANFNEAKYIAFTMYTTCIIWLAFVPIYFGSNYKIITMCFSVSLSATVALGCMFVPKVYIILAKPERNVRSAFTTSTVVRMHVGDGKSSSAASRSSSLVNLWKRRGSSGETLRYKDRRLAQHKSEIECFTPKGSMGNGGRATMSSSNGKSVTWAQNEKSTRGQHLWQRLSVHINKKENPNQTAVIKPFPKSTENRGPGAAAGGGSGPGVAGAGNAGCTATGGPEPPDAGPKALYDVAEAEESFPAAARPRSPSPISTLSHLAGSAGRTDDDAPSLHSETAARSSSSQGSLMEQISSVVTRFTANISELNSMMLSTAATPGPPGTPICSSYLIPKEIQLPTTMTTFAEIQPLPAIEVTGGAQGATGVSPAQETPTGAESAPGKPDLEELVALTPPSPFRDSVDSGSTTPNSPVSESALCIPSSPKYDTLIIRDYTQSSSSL
Format: cell-based
Method: (§1) Human embryonic kidney (HEK) cells transfected with rat mGluR5 were plated in clear bottom assay plates for assay in a Functional Drug Screening System (FDSS). In the alternative assay, HEK cells transfected with human mGluR5 (H10H cell line) were plated for assay in the FDSS. […] The cells were loaded with a Ca^2+-sensitive fluorescent dye (e.g., Fluo-4), and the plates were washed and placed in the FDSS instrument. After establishment of a fluorescence baseline for twelve seconds, the compounds of the present invention were added to the cells, and the response in cells was measured. Five minutes later, an mGluR5 agonist (e.g., glutamate, 3,5-dihydroxyphenylglycine, or quisqualate) was added to the cells, and the response of the cells was measured. Potentiation of the agonist response of mGluR5 by the compounds in the present invention was observed as an increase in response to non-maximal concentrations of agonist (here, glutamate) in the presence of compound compared to the response to agonist in the absence of compound.
(§2) The above described assay operated in two modes. In the first mode, a range of concentrations of the present compounds were added to cells, followed by a single fixed concentration of agonist. If a compound acted as a potentiator, an EC50 value for potentiation and a maximum extent of potentiation by the compound at this concentration of agonist was determined by non-linear curve fitting. In the second mode, several fixed concentrations of the present compounds were added to various wells on a plate, followed by a range of concentrations of agonist for each concentration of present compound; the EC50 values for the agonist at each concentration of compound were determined by non-linear curve fitting. A decrease in the EC50 value of the agonist with increasing concentrations of the present compounds (a leftward shift of the agonist concentration-response curve) is an indication of the degree of mGluR5 potentiation at a given concentration of the present compound. An increase in the EC50 value of the agonist with increasing concentrations of the present compounds (a rightward shift of the agonist concentration-response curve) is an indication of the degree of mGluR5 antagonism at a given concentration of the present compound. The second mode also indicates whether the present compounds also affect the maximum response to mGluR5 to agonists.
`O=C(NC1CCc2ccccc21)c1ccc(COc2ccccc2)nc1` (stereo not drawn) [drawing 138] gave an EC50 of over 10 µM.
For `O=C(NC1(c2ccccc2)CCC1)c1ccc(COc2ccccc2)nc1`, the EC50 was over 10 µM.
`C[C@@H](NC(=O)c1ccc(COc2cccc(F)c2)nc1)C1CC1` was tested, and the EC50 was 1.06 µM.
`O=C(Nc1nccs1)c1ccc(COc2cccc(F)c2)nc1` was tested, and the EC50 was over 10 µM.
Molecule `O=C(NCC1CCCCC1)c1ccc(COc2ccccc2)nc1` has an EC50 of 0.575 µM.
`C[C@@H](NC(=O)c1ccc(COc2ccccc2F)nc1)C1CCCCC1` was tested, and the EC50 was 0.16 µM.
Work on `O=C(Nc1nncs1)c1ccc(COc2ccccc2)nc1` yielded an EC50 of over 10 µM.
With `COCCNC(=O)c1ccc(COc2ccccc2)nc1` the EC50 was over 10 µM.
`C[C@H](NC(=O)c1ccc(COc2cccc(F)c2)nc1)C1CCCCC1` [drawing 152] gave an EC50 of over 10 µM.
With `O=C(Nc1ccc(F)cc1)c1ccc(COc2ccccc2)nc1` the EC50 was over 10 µM.
`O=C(N[C@H](C1CC1)C(F)(F)F)c1ccc(COc2cccc(F)c2)nc1` was tested, and the EC50 was over 10 µM.
`C[C@@H](NC(=O)c1ccc(COc2cccc(C#N)c2)nc1)C1CCCCC1` showed an EC50 of 0.22 µM.
Work on `O=C(NC1(c2ccccc2)CCC1)c1ccc(COc2cc(F)cc(F)c2)nc1` yielded an EC50 of over 10 µM.
In the case of `CC(C)NC(=O)c1ccc(COc2cccc(F)c2)nc1`, the EC50 is reported as over 10 µM.
`COc1cccc(OCc2ccc(C(=O)N[C@H](C)C3CCCCC3)cn2)c1` was tested, and the EC50 was 1.2 µM.
`C[C@@H](NC(=O)c1ccc(COc2cccc(F)c2)nc1)C(C)(C)C` [drawing 65] was tested, and the EC50 was 0.0813 µM.
With `O=C(NC1CCCCC1)c1ccc(COc2cccc(F)c2)nc1` the EC50 was 0.447 µM.
`C[C@@H](NC(=O)c1ccc(COc2cccnc2)nc1)C1CCCCC1` [drawing 109] showed an EC50 of 4.9 µM.
In the case of `O=C(Nc1ccccn1)c1ccc(COc2ccccc2)nc1`, the EC50 is reported as 5.25 µM.
In the case of `C[C@@H](NC(=O)c1ccc(COc2ccccc2Cl)nc1)C1CCCCC1`, the EC50 is reported as over 10 µM.
`O=C(NCC1CC1)c1ccc(COc2ccccc2)nc1` was tested, and the EC50 was over 10 µM.
In the case of `CC(C)NC(=O)c1ccc(COc2ccccc2)nc1`, the EC50 is reported as over 10 µM.
`C[C@@H](NC(=O)c1ccc(COc2ccccc2)nc1)C1CCCCC1` [drawing 69] gave an EC50 of 0.146 µM.
`CC(C)CCNC(=O)c1ccc(COc2ccccc2)nc1` was tested, and the EC50 was 0.966 µM.

These molecules were tested against T2, human mGluR5 (Homo sapiens, UniProt P41594) (assay: Potentiation of glutamate response in HEK cells transfected with human mGluR5 (H10H cell line), Ca2+ fluorescence, FDSS). Conditions: read-out: hmGluR5 EC50 (H10H cell line).
T2 construct: expressed in transfected cells; host or cells: HEK cells, H10H cell line
T2 sequence (P41594 21-1212): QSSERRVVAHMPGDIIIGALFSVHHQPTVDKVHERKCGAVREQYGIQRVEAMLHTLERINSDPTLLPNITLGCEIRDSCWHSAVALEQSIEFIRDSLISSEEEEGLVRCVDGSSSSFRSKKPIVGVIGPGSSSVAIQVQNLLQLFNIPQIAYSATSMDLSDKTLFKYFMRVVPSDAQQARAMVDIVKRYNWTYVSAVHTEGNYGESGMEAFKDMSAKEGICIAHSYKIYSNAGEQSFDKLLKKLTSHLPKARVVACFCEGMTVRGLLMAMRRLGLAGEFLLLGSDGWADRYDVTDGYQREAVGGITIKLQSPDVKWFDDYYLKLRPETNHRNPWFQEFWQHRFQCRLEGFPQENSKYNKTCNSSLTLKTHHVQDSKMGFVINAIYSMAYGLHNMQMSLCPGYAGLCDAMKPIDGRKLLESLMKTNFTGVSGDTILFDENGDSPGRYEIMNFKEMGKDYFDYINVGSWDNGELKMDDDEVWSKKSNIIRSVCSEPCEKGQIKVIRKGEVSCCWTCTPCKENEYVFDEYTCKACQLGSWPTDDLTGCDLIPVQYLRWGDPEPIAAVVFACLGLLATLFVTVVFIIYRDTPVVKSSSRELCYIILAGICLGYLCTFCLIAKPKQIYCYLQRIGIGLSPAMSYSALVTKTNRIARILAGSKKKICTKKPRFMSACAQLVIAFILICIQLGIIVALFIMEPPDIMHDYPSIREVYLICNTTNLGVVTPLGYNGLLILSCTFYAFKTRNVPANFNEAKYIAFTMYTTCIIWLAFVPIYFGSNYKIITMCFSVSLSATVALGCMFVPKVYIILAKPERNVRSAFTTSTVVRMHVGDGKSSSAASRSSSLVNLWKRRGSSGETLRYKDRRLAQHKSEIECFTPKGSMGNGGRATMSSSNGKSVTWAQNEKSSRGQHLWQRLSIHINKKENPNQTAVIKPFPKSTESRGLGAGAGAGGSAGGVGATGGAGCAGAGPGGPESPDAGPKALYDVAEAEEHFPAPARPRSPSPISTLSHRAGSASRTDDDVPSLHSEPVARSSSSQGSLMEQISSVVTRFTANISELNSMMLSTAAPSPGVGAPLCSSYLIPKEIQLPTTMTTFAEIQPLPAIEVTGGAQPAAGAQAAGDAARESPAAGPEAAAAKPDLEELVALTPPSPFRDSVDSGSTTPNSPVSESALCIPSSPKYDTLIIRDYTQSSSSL
Format: cell-based
Method: as §1, §2
Work on `CC(NC(=O)c1ccc(COc2cccc(F)c2)nc1)C(C)(C)O` (stereo not drawn) yielded an EC50 of over 10 µM.
For `O=C(N[C@@H]1C[C@@H]2CC[C@H]1C2)c1ccc(COc2cccc(F)c2)nc1`, the EC50 was over 10 µM.
For `CC(NC(=O)c1ccc(COc2cccc(F)c2)nc1)C1CCCOC1` (stereo not drawn), the EC50 was 0.44 µM.
For `C[C@@H](NC(=O)c1ccc(COc2cncc(C(F)(F)F)c2)nc1)C(C)(C)C`, the EC50 was over 10 µM.
`O=C(NC(c1ccc(F)cc1)C(F)(F)F)c1ccc(COc2cccc(F)c2)nc1` (stereo not drawn) showed an EC50 of over 10 µM.
`C[C@H](NC(=O)c1ccc(COc2cccc(F)c2)nc1)C(C)(C)C` [drawing 189] showed an EC50 of over 10 µM.
For `Cc1cc(OCc2ccc(C(=O)N[C@H](C)C(C)(C)C)cn2)ccn1`, the EC50 was over 10 µM.
Work on `O=C(N[C@H]1C[C@@H]2CC[C@H]1C2)c1ccc(COc2cccc(F)c2)nc1` yielded an EC50 of 0.55 µM.
In the case of `C[C@@H](NC(=O)c1ccc(COc2ccnc(Cl)c2)nc1)C1CCCCC1`, the EC50 is reported as 1.5 µM.
`O=C(N[C@@H]1C[C@H]2CC[C@@H]1C2)c1ccc(COc2cccc(F)c2)nc1` gave an EC50 of 0.17 µM.
For `CC(NC(=O)c1ccc(COc2cccc(F)c2)nc1)C(F)(F)F` (stereo not drawn), the EC50 was 3.2 µM.
`C[C@@H](NC(=O)c1ccc(COc2cncnc2)nc1)C(C)(C)C` gave an EC50 of over 10 µM.
`C[C@@H](NC(=O)c1ccc(COc2ccnc(Cl)c2)nc1)C(C)(C)C` showed an EC50 of 2.3 µM.
For `O=C(N[C@H]1C[C@H]2CC[C@@H]1C2)c1ccc(COc2cccc(F)c2)nc1`, the EC50 was 0.73 µM.
Work on `C[C@@H](NC(=O)c1ccc(COc2cncc(C(F)(F)F)c2)nc1)C1CCCCC1` yielded an EC50 of over 10 µM.
Work on `O=C(NC1CC(O)(C(F)(F)F)C1)c1ccc(COc2cccc(F)c2)nc1` (stereo not drawn) [drawing 172] yielded an EC50 of over 10 µM.
`CC(NC(=O)c1ccc(COc2cccc(F)c2)nc1)C1CCCCO1` (stereo not drawn) was tested, and the EC50 was 1.9 µM.
With `O=C(NC(c1ccccn1)C(F)(F)F)c1ccc(COc2cccc(F)c2)nc1` (stereo not drawn) the EC50 was over 10 µM.
In the case of `Cc1cc(OCc2ccc(C(=O)N[C@H](C)C3CCCCC3)cn2)ccn1`, the EC50 is reported as over 10 µM.
Work on `C[C@@H](N(C)C(=O)c1ccc(COc2cccc(F)c2)nc1)C(C)(C)C` yielded an EC50 of over 10 µM.
In the case of `CC1(CCNC(=O)c2ccc(COc3cccc(F)c3)nc2)COC1`, the EC50 is reported as over 10 µM.
Molecule `CC(NC(=O)c1ccc(COc2cccc(F)c2)nc1)c1nccs1` (stereo not drawn) has an EC50 of over 10 µM.
Work on `C[C@@H](NC(=O)c1ccc(COc2cncc(Cl)c2)nc1)C(C)(C)C` yielded an EC50 of over 10 µM.
With `CC1(O)CC(NC(=O)c2ccc(COc3cccc(F)c3)nc2)C1` (stereo not drawn) the EC50 was over 10 µM.
`C[C@@H](NC(=O)c1ccc(COc2cncc(F)c2)nc1)C(C)(C)C` was tested, and the EC50 was over 10 µM.
For `O=C(NC1CC(O)(C(F)(F)F)C1)c1ccc(COc2cccc(F)c2)nc1` (stereo not drawn) [drawing 173], the EC50 was over 10 µM.
`C[C@@H](NC(=O)c1ccc(COc2cncc(F)c2)nc1)C1CCCCC1` showed an EC50 of 2.7 µM.
`O=C(NC1(c2ccccn2)CC1)c1ccc(COc2cccc(F)c2)nc1` gave an EC50 of over 10 µM.
For `C[C@@H](NC(=O)c1ccc(COc2cncc(Cl)c2)nc1)C1CCCCC1`, the EC50 was over 10 µM.
Molecule `CC1(CNC(=O)c2ccc(COc3cccc(F)c3)nc2)COC1` has an EC50 of over 10 µM.
